Test results published in patent publication US9249147B2, “Tyrosine kinase inhibitors” (CHEMBRIDGE CORPORATION, priority 2008, dated 2016).
Where “and” joins values, the source holds several entries; their conditions need not be identical. Identical values can stand only once. Like-named read-outs stand apart in the source and are kept apart here.

What was measured:
[1] = Plasma Protein Binding (Human), equilibrium dialysis; format: in vitro ADME; conditions: 1.0E−05 M
[2] = target: T1, Src (Homo sapiens, UniProt P12931); assay: Invitrogen SelectScreen Z-lyte kinase assay, Src; format: biochemical
T1 construct: purchased Invitrogen

[3] = Pharmacokinetics study in CD-1 mice (IV, PO); format: in vivo; conditions: for MRT inf: read-out: MRT(0-∞); for concentration at 4 h: time point 4, Mean
Method: A comprehensive PK study was run in CD-1 strain of mice with IV (1 mg/kg) and PO (5 mg/kg) routes of drug delivery and analytical data collection at 10 time points over 24 hours (Medicilon, Study CRL0703).
Blood samples were collected by removing the eyeballs at pre-dose and 0.083, 0.25, 0.5, 1, 2, 4, 6, 8, and 24 hours post-dose. The plasma samples and the dose formulation were stored at −20° C. until bioanalysis.

[4] = target: RET (Homo sapiens, UniProt P07949); assay: Invitrogen SelectScreen Z-lyte kinase assay, Ret; format: biochemical; design: purchased Invitrogen (SelectScreen service); conditions: 100 μM ATP
Method: To evaluate selectivity versus other kinases, inhibition of various kinases by compound (II) was determined. In particular, IC50s for TrkA, Jak2, Axl tyrosine kinases were determined using ADP Hunter (DiscoverX) kinase assay. Single point profiling of compound (II) on 50 human tyrosine kinases and 10 Ser-Thr kinases was done at Upstate/Millipore by radiometric assay. […] The subset of the 520 kinases in the human kinome that were tested was strategically selected to cover most of the therapeutically relevant tyrosine kinases and to represent major branches of serine-threonine kinases.
Compound (II) was a multitargeted tyrosine kinase (TK) inhibitor with a distinct pattern of inhibition focused on ALK, Trk family, Ros and Ret kinases. Invitrogen SelectScreen (Z-lyte assay) produced the following IC5O values for this set of kinases: ALK 9.75 nM, TrkA 1.5 nM, TrkB 1.4 nM, TrkC 1.8 nM, Ret 7.1 nM, Ros 1.8 nM (all measured at 100 μM ATP). […] About 70% of the 50 TKs tested have selectivity in excess of 50-fold for ALK and higher for Ret, Ros and Trk family members.

[5] = CD-1, mouse, plasma, iv, 1 mg/kg, IV 1 mg/kg, CD-1 mice, Mean
[6] = CD-1, mouse, plasma, iv, 1 mg/kg, IV 1 mg/kg, individual animals A-D
[7] = IV 1 mg/kg, individual animals A-D, 1 mg/kg

Chain of RET (P07949 29-1114): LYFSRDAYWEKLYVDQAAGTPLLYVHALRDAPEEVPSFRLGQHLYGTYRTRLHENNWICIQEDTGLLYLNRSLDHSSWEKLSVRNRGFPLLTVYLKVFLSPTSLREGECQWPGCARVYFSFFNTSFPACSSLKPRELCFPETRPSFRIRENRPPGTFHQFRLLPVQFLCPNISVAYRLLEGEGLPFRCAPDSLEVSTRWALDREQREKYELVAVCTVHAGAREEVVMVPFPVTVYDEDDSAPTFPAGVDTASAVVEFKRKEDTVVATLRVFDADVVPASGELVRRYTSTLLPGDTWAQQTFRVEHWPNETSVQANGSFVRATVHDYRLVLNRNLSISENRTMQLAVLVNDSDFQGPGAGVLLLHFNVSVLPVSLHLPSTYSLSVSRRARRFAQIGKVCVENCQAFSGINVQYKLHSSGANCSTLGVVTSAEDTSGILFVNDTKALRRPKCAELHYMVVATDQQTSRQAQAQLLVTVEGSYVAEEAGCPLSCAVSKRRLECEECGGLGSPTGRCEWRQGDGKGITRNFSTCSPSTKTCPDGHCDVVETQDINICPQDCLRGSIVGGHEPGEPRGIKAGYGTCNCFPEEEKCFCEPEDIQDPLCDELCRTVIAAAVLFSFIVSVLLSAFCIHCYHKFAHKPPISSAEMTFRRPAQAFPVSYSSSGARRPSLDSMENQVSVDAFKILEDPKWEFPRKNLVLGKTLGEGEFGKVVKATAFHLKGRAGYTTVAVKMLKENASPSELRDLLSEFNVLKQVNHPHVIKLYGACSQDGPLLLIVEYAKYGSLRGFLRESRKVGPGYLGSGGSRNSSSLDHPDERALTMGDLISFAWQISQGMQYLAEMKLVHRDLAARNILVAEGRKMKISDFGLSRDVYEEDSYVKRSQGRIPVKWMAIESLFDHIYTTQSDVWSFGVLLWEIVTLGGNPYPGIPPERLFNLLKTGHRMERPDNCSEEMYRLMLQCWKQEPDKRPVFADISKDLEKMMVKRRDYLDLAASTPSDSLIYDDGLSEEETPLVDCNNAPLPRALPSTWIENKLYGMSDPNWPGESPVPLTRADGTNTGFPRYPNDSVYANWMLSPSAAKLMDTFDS
T1 sequence (P12931 whole entry): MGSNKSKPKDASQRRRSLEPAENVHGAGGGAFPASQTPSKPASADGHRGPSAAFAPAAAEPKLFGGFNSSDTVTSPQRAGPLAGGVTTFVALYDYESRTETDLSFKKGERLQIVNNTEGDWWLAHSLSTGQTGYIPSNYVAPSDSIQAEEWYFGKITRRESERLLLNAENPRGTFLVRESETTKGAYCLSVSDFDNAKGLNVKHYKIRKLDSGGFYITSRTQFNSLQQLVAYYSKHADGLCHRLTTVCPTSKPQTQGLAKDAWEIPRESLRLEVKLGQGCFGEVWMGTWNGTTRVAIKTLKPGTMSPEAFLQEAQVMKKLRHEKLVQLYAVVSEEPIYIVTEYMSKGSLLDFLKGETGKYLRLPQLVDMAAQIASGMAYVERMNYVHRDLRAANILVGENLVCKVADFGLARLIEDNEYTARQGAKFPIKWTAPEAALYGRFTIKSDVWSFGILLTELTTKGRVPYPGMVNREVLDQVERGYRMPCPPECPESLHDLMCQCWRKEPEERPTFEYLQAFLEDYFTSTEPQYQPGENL

For Cc1ccc(F)cc1C[C@H](C)Nc1cc[nH]c(=O)c1-c1nc2cc3c(cc2[nH]1)C(=O)N(CCN1CCCC1)C3 [compound (II)], the “% Protein Bound, Mean” value ([1]; equilibrium dialysis) was 94.7%, the “% Protein Bound, 1st/2nd” value ([1]; individual data, listed as CRL241) was 94.6% and 94.7% and the IC50 [2] was 0.032 µM. It also gave an AUC(0-inf) [3, 5] of 0.105 µg·h/mL, a Tmax [3, 5] of 4.8 min and an AUC(0-t) ([3]; CD-1, mouse, plasma, iv, 1 mg/kg, IV 1 mg/kg, CD-1 mice, Mean, read-out: AUC(0-t)) of 0.102 µg·h/mL. The Cmax ([3]; CD-1, mouse, plasma, iv, 1 mg/kg, IV 1 mg/kg, CD-1 mice, Mean, read-out: Cmax) was 0.186 µg/mL, the MRT inf [3, 5] was 1.36 h and the AUC(0-inf) [3, 6] was 0.102 µg·h/mL. For the same molecule, the Tmax [3, 6] was 4.98 min, the AUC(0-t) ([3]; CD-1, mouse, plasma, iv, 1 mg/kg, IV 1 mg/kg, individual animals A-D, read-out: AUC(0-t)) was 0.1 µg·h/mL and the Cmax ([3]; CD-1, mouse, plasma, iv, 1 mg/kg, IV 1 mg/kg, individual animals A-D, read-out: Cmax) was 0.248 µg/mL. For the same molecule, the MRT inf [3, 6] was 1.37 h, the concentration at […] ([3]; CD-1, mouse, plasma, iv, 1 mg/kg, IV 1 mg/kg, time point 0.083, Mean) was 0.186 µg/mL and the concentration at […] ([3]; CD-1, mouse, plasma, iv, 1 mg/kg, IV 1 mg/kg, time point 0.083, individual animals A-D) was 0.163 µg/mL. It also gave a concentration at […] ([3]; CD-1, mouse, plasma, iv, 1 mg/kg, IV 1 mg/kg, time point 0.35, Mean) of 0.074 µg/mL, a concentration at 0.5 h ([3]; CD-1, mouse, plasma, iv, 1 mg/kg, IV 1 mg/kg, time point 0.5, Mean) of 0.0329 µg/mL and a concentration at 0.5 h ([3]; CD-1, mouse, plasma, iv, 1 mg/kg, IV 1 mg/kg, time point 0.5, individual animals A-D) of 0.0368 µg/mL. For the same molecule, the concentration at 1 h ([3]; CD-1, mouse, plasma, iv, 1 mg/kg, IV 1 mg/kg, time point 1, Mean) was 0.0189 µg/mL, the concentration at 1 h ([3]; CD-1, mouse, plasma, iv, 1 mg/kg, IV 1 mg/kg, time point 1, individual animals A-D) was 0.0141 µg/mL and the concentration at 2 h ([3]; CD-1, mouse, plasma, iv, 1 mg/kg, IV 1 mg/kg, time point 2, Mean) was 0.0103 µg/mL. The concentration at 2 h ([3]; CD-1, mouse, plasma, iv, 1 mg/kg, IV 1 mg/kg, time point 2, individual animals A-D) was 0.0104 µg/mL, the concentration at 4 h ([3]; CD-1, mouse, plasma, iv, 1 mg/kg, IV 1 mg/kg) was 0.00505 µg/mL and the concentration at 6 h ([3]; CD-1, mouse, plasma, iv, 1 mg/kg, IV 1 mg/kg, time point 6, Mean) was 0.00218 µg/mL. It also gave a concentration at 6 h ([3]; CD-1, mouse, plasma, iv, 1 mg/kg, IV 1 mg/kg, time point 6, individual animals A-D) of 0.00213 µg/mL, a concentration at […] ([3]; CD-1, mouse, plasma, po, 5 mg/kg, PO 5 mg/kg, time point 0.083, Mean) of 0.00124 µg/mL and a concentration at […] ([3]; CD-1, mouse, plasma, po, 5 mg/kg, PO 5 mg/kg, time point 0.083, individual animals A-D) of 0.00207 µg/mL. It also gave a concentration at […] ([3]; CD-1, mouse, plasma, po, 5 mg/kg, PO 5 mg/kg, time point 0.35, individual animals A-D) of 0.00121 µg/mL, a concentration at 2 h ([3]; CD-1, mouse, plasma, po, 5 mg/kg, PO 5 mg/kg, time point 2, Mean) of 0.00101 µg/mL and a concentration at 2 h ([3]; CD-1, mouse, plasma, po, 5 mg/kg, PO 5 mg/kg, time point 2, individual animals A-D) of 0.00147 µg/mL. It also gave a concentration at 4 h ([3]; CD-1, mouse, plasma, po, 5 mg/kg, PO 5 mg/kg) of 0.00364 µg/mL, a concentration at 6 h ([3]; CD-1, mouse, plasma, po, 5 mg/kg, PO 5 mg/kg, time point 6, individual animals A-D) of 0.00134 µg/mL and a CL2 ([3]; IV 1 mg/kg, CD-1 mice, Mean) of 9.52 L/h/kg. The V2 ([3]; IV 1 mg/kg, CD-1 mice, Mean) was 18.63 L/kg, the “AUC(0-t)” value [3, 7] was 0.096033 µg·h/mL and 0.110999 µg·h/mL and 0.102243 µg·h/mL and the “AUC(0-∞)” value [3, 7] was 0.097734 µg·h/mL and 0.116619 µg·h/mL and 0.105516 µg·h/mL. For the same molecule, the CL2 [3, 7] was 9.811 L/h/kg and 10.232 L/h/kg and 8.575 L/h/kg and 9.477 L/h/kg, the Cmax [3, 7] was 0.144182 µg/mL and 0.163492 µg/mL and 0.186531 µg/mL and the “MRT(0-∞)” value [3, 7] was 1.295 h and 1.614 h and 1.176 h. The T1/2z [3, 7] was 1.16 h and 1.124 h and 1.81 h and 1.395 h, the V2 [3, 7] was 16.427 L/kg and 16.598 L/kg and 22.401 L/kg and 19.076 L/kg and the “Plasma Concentration” value ([3]; IV 1 mg/kg, time point 0.083, individual animals A-D, 1 mg/kg) was 186.53 ng/mL and 248.44 ng/mL and 144.18 ng/mL. For the same molecule, the “Plasma Concentration” value ([3]; IV 1 mg/kg, time point 0.5, individual animals A-D, 1 mg/kg) was 29.12 ng/mL and 31.99 ng/mL and 33.27 ng/mL, the “Plasma Concentration” value ([3]; IV 1 mg/kg, time point 1, individual animals A-D, 1 mg/kg) was 19.36 ng/mL and 19.24 ng/mL and 22.93 ng/mL and the “Plasma Concentration” value ([3]; IV 1 mg/kg, time point 2, individual animals A-D, 1 mg/kg) was 8.73 ng/mL and 9.58 ng/mL and 12.30 ng/mL. For the same molecule, the “Plasma Concentration” value ([3]; IV 1 mg/kg, time point 4, individual animals A-D, 1 mg/kg) was 8.09 ng/mL and 4.47 ng/mL and 3.14 ng/mL and 3.60 ng/mL, the “Plasma Concentration” value ([3]; IV 1 mg/kg, time point 6, individual animals A-D, 1 mg/kg) was 1.81 ng/mL and 3.23 ng/mL and 1.77 ng/mL and the “Plasma Concentration” value ([3]; IV 1 mg/kg, time point 8, individual animals A-D) was “BLQ”. For the same molecule, the “Plasma Concentration” value ([3]; IV 1 mg/kg, time point 24, individual animals A-D) was “BLQ”, the “Volume of distribution relative to total body water” value ([3]; IV, mice) was 26 fold and the “Plasma Concentration” value ([3]; PO 5 mg/kg, time point 0.083, individual animals A-D, 5 mg/kg) was 2.19 ng/mL and BLQ (2×). For the same molecule, the “Plasma Concentration” value ([3]; PO 5 mg/kg, time point 0.35, individual animals A-D, 5 mg/kg) was “BLQ”, the “Plasma Concentration” value ([3]; PO 5 mg/kg, time point 0.5, individual animals A-D) was “BLQ” and the “Plasma Concentration” value ([3]; PO 5 mg/kg, time point 1, individual animals A-D) was “BLQ”. For the same molecule, the “Plasma Concentration” value ([3]; PO 5 mg/kg, time point 2, individual animals A-D, 5 mg/kg) was 1.00 ng/mL and BLQ (2×), the “Plasma Concentration” value ([3]; PO 5 mg/kg, time point 4, individual animals A-D, 5 mg/kg) was 6.06 ng/mL and 1.90 ng/mL and 1.22 ng/mL and 5.39 ng/mL and the “Plasma Concentration” value ([3]; PO 5 mg/kg, time point 6, individual animals A-D, 5 mg/kg) was “BLQ”. For the same molecule, the “Plasma Concentration” value ([3]; PO 5 mg/kg, time point 8, individual animals A-D) was “BLQ”, the “Plasma Concentration” value ([3]; PO 5 mg/kg, time point 24, individual animals A-D) was “BLQ” and the half-life ([3]; mouse, plasma, IV 1 mg/kg, CD-1 mice, Mean, read-out: T1/2z (plasma half-life) (converted)) was 1.37 h. The bioavailability ([3]; mouse, plasma, PO 5 mg/kg vs IV 1 mg/kg, CD-1 mice) was less than 1% and the IC50 [4] was 0.0071 µM.
